Assay results as given in patent US20230404953A1, “COMPOUND FOR THE REDUCTION OF WHITE ADIPOSE TISSUE AND THE TREATMENT OF OVERWEIGHT AND OBESITY” (UNIVERSIDAD DE GRANADA, priority 2020, published 2023).

Columns and labels:
[1] = Quantification of β-RA levels in mouse tissues by HPLC-UV; format: in vivo; settings: wild-type mice 3 months of age, β-RA in standard diet at 0.33% (w/w), oral, mean±SD
Experimental: The experimental treatment was based on the administration of β-RA in the chow feed at a concentration of 0.33% (weight/weight), which represents a dose of 0.25-0.75 g/kg of body weight/day. […] Therefore, β-RA has been chronically administered orally. The quantification of β-RA was carried out by means of HPLC-UV using an Ultra Aqueous C18 column and a mobile phase consisting of 20 mM potassium phosphate and 15% acetonitrile (pH 2.5). The standard curve consisted of β-RA at a concentration of 5, 25, and 100 μg/mL. In this example, β-RA levels were determined in order to know the bioavailability of the compound when it is administered orally. It has been observed that β-RA appears in the brain, kidneys, liver, and skeletal muscle, with the kidneys being the tissues having the highest level of the compound (Table 1).

[2] = tested on: wild-type mice with a standard diet; test: Survival and phenotypic state of mice with a standard diet (overweight associated with age); format: in vivo
Excerpt: (§1) For the studies, c57Bl6j strain control mice were used under the protocols approved by the Animal Experimentation Ethics Committee of the University of Granada and registered by the competent body, the General Directorate of Agricultural and Livestock Production of the Ministry of Agriculture, Livestock, Fisheries, and Sustainable Development of the Regional Government of Andalusia, under reference numbers 18/02/2019/016 and 16/09/2019/153.
(§2) In this example intended for long-term evaluation during the aging process, the animals were kept on a standard rodent diet consisting mainly of carbohydrates (66% carbohydrates, 21% proteins, and 13% fats as energy sources), where these mice accumulate fat as they age, imitating a situation of overweight associated with age.
(§3) The experimental treatment was based on the administration of β-RA in the chow feed at a concentration of 0.33% (weight/weight), which represents a dose of 0.25-0.75 g/kg of body weight/day.
(§4) The mice were put under treatment after weaning at 21 days of life, with said treatment being maintained for the entire life of the animals. Analyses were performed at 18 months of life, unless another age is indicated, after 17 months of treatment.
(§5) Survival and body weight were determined through continuous records throughout the life of the animals. Motor coordination and activity were evaluated through the rotarod test. The muscle strength of the hind limbs was evaluated through the grip strength test. The image and the weight of the tissues were taken immediately after sacrificing and dissecting the animals.

[3] = tested on: wild-type mice with a standard diet; test: Liver morphology of mice with a standard diet (H&E and Oil Red O staining); format: in vivo; settings: standard diet + 0.33% (w/w) β-RA; 18 months of age; male and female mice
Excerpt: as §2, §3, §4
In this example, photographs have been taken of the animals and tissues after dissection. The tissues were fixed in formalin and embedded in paraffin. Several sections (4 μm thick) were deparaffinized with xylene and stained with hematoxylin and eosin staining (Luna-Sanchez M, Diaz-Casado E, Barca E, Tejada M A, Montilla-Garcia A, Cobos E J, Escames G, Acuna-Castroviejo D, Quinzii C M, Lopez L C (2015) The clinical heterogeneity of coenzyme Q10 deficiency results from genotypic differences in the Coq9 gene. EMBO Mol Med 7: 670-87). […]

kidney mitochondria = test: Kidney mitochondrial proteome in mice with a standard diet; format: in vivo
Experimental: To check if β-RA has effects on energy metabolism in mitochondria, a study was performed on the mitochondrial proteome of kidneys, because the highest β-RA levels are reached in this tissue (see Table 1).
Each kidney was dissected, and the mitochondrial fraction was then isolated by differential centrifugation. Each pellet was resuspended in […] of HEENK medium with a protease inhibitor. The samples were lysed, digested, and treated prior to injection in UHPLC. After quality control, the samples were injected into a UHPLC 1290 system (Agilent Technologies; Santa Clara, USA) coupled to a Q Exactive HF mass spectrometer (Thermo Scientific; Bremen, Germany) in the previously described conditions (Liu F, Lossl P, Rabbitts B M, Balaban R S, Heck A J R (2018) The interactome of intact mitochondria by cross-linking mass spectrometry provides evidence for coexisting respiratory supercomplexes. Mol Cell Proteomics 17: 216-232). The raw files generated were analyzed using MaxQuant v1.6.10 software (Cox J, Mann M (2008) MaxQuant enables high peptide identification rates, individualized p.p.b.-range mass accuracies and proteome-wide protein quantification. Nat Biotechnol 26: 1367-72). The files generated with MaxQuant were analyzed with Perseus: LFQ data was log 2-transformed, and identifications that were present in at least 3 of the 5 replicates were kept for subsequent analyses. For the volcano plot, a P-value threshold of 0.01 and 1 for the LFQ value log 2 difference has been established.

3T3L1 preadipocytes = test: MTT cell proliferation assay in preadipocytes; format: cell-based; settings: 1 mM β-RA for 5 days, proliferation conditions
Experimental: (§6) It is known that one of the WAT expansion mechanisms is hyperplasia, i.e., the capacity of WAT to recruit new adipocytes proliferated from precursor cells. To check whether the effect of β-RA on WAT may also constitute a direct action on WAT, the proliferative capacity of a preadipocyte cell line (3T3L1) subjected to treatment with β-RA was determined in in vitro assays, and the results were compared with those obtained in a myoblast cell line (C2C12). This could be used to determine whether the possible effects are specific of a given cell type, excluding those signals and consequences resulting from the physiological context of the in vivo studies. Preadipocyte cell line 3T3L1 and myoblast cell line C2C12 were provided by the Cell Culture Department of the Science Instrumentation Center of the University of Granada. The cells were cultured in glucose-rich DMEM-GlutaMAX supplemented with 10% BCS or FBS, 1% non-essential amino acids MEM, and 1% antibiotic/antimycotic. Treatment with β-RA was administered at a concentration of 1 mM for 5 days. A control group was also treated with vehicle (DMSO) at the same concentration (Luna-Sanchez et al., 2015). The proliferation assay was performed with Vybrant® MTT Cell Proliferation Assay Kit (ThermoFisher Scientific), following the indications of the manufacturing company.

C2C12 myoblasts = test: MTT cell proliferation assay in myoblasts; format: cell-based; settings: 1 mM β-RA for 5 days, proliferation conditions
Experimental: as §6

[4] = tested on: wild-type mice with a HFHS diet; test: Phenotypic state of mice with a high fat high sucrose (HFHS) diet (induced obesity); format: in vivo; settings: HFHS diet + 0.33% (w/w) β-RA, 16 weeks
Excerpt: as §1
(§7) In this example intended for performing a short-term evaluation in an induced metabolic syndrome model, the animals were fed on a high fat high sucrose (HFHS) diet (32% carbohydrates, 14% proteins, and 54% fats as energy sources), where said mice experience a higher fat gain, imitating a state of obesity.
as §3
(§8) The mice were put under treatment at two months of life, with said treatment being maintained for 4 months. Analyses were performed at 6 months of life, after 4 months of treatment.
as §5

[5] = tested on: wild-type mice with a HFHS diet; test: Plasma levels of insulin and GIP in mice with a HFHS diet; format: in vivo; settings: HFHS diet + β-RA, 16 weeks
Excerpt: as §7, §3, §8
Plasma levels of insulin and gastric inhibitory peptide (GIP), also called glucose-dependent insulinotropic peptide, given that both of them tend to increase in cases of obesity with insulin resistance, were determined. […] The administration of β-RA to mice with a HFHS diet reduced the plasma levels of insulin (FIG. 14A) and GIP (FIG. 14B), normalizing said values.

[6] = tested on: white adipose tissue (WAT); test: CoQ metabolism in white adipose tissue of mice with a HFHS diet; format: in vivo; settings: HFHS diet + β-RA, 16 weeks
Excerpt: as §7, §3, §8
(§9) At the level of WAT, CoQ metabolism was evaluated by determining the levels of the major form of CoQ in rodents, i.e., CoQ9, as well as the levels of two limiting enzymes in the CoQ biosynthesis pathway, i.e., the hydroxylase Coq7 and the methyltransferase Coq5. […] These molecular changes translate into morphological changes observed with hematoxylin and eosin staining. […] As a result, the area occupied by adipocytes after treatment with a HFHS diet is larger than after treatment with the standard diet, with the number of adipocytes being smaller. Treatment with β-RA normalizes both the area of the adipocytes (FIG. 16G) and the number thereof (FIG. 16H).

white adipocytes = test: Morphology of WAT in mice with a HFHS diet (hematoxylin and eosin staining); format: in vivo; settings: HFHS diet + β-RA, 16 weeks
Excerpt: as §7, §3, §8, §9

[7] = CAG-CreER^T2; Mclk1^Loxp/Loxp control mice; cited from earlier work
[8] = standard diet + 0.33% (w/w) β-RA, 18 months of age

For `O=C(O)c1ccc(O)cc1O` [β-RA, 2,4-dihydroxybenzoic acid], the “β-RA levels, Brain” value ([1]; brain) was 1.26 ± 0.58 ng of β-RA/mg of protein, the “β-RA levels, Kidney” value ([1]; kidney) was 43.02 ± 16.51 ng of β-RA/mg of protein and the “β-RA levels, Liver” value ([1]; liver) was 7.04 ± 2.96 ng of β-RA/mg of protein. The “β-RA levels, Muscle” value ([1]; skeletal muscle) was 20.28 ± 9.39 ng of β-RA/mg of protein, the Body weight ([2]; standard diet + 0.33% (w/w) β-RA from weaning, all stages of development, male and female) was “reduction of weight” and the Survival ([2]; standard diet + 0.33% (w/w) β-RA from weaning, old-age stage (18-24 months)) was “increase in survival”. For the same molecule, the “Amount of abdominal and visceral fat” value [2, 8] was “reduction in the amount of abdominal and visceral fat”, the “Motor coordination (rotarod test)” value [2, 8] was “slight upward trend” and the “Muscle strength of the hind limbs (grip strength test)” value [2, 8] was “remained unchanged and even slightly increased in reference to the total weight of the animal”. The “Weight of the skeletal muscles” value ([2]; standard diet + 0.33% (w/w) β-RA, 18 months of age, hind limbs) was “maintained in the normal range”, the “Onset of hepatic steatosis (lipid droplets in liver)” value [3] was “prevented” and the “Changes in the mitochondrial proteome: proteins of acetyl-CoA production from pyruvate and of the Krebs cycle” value (kidney mitochondria; mice with standard diet + β-RA) was “an increase in proteins linked to the metabolic pathways for the production of acetyl-CoA from pyruvate and of the tricarboxylic acid cycle or Krebs cycle”. For the same molecule, the “Expr Fold Change, ACO2” value (kidney mitochondria; β-RA treated vs untreated mice, Aconitase 2 (Q99KI0)) was 1.383, the “Expr Fold Change, SUCLG1” value (kidney mitochondria; β-RA treated vs untreated mice, Succinate CoA ligase subunit alpha (Q9WUM5)) was 1.301 and the “Expr Fold Change, SUCLG2” value (kidney mitochondria; β-RA treated vs untreated mice, Succinate CoA ligase subunit beta (Q9Z2I8)) was 1.189. For the same molecule, the “Expr Fold Change, CS” value (kidney mitochondria; β-RA treated vs untreated mice, citrate synthase (Q9CZU6)) was 1.485, the “Expr Fold Change, DLAT” value (kidney mitochondria; β-RA treated vs untreated mice, dihydrolipoamide S-acetyltransferase (Q8BMF4)) was 1.638 and the “Expr Fold Change, DLST” value (kidney mitochondria; β-RA treated vs untreated mice, dihydrolipoamide S-succinyltransferase (Q9D2G2)) was 2.316. For the same molecule, the “Expr Fold Change, DLD” value (kidney mitochondria; β-RA treated vs untreated mice, dihydrolipoamide dehydrogenase (O08749)) was 1.831, the “Expr Fold Change, IDH3A” value (kidney mitochondria; β-RA treated vs untreated mice, isocitrate dehydrogenase (NAD(+)) 3 catalytic subunit alpha (Q9D6R2)) was 1.72 and the “Expr Fold Change, IDH3B” value (kidney mitochondria; β-RA treated vs untreated mice, isocitrate dehydrogenase (NAD(+)) 3 non-catalytic subunit beta (Q91VA7)) was 1.727. The “Expr Fold Change, IDH3G” value (kidney mitochondria; β-RA treated vs untreated mice, isocitrate dehydrogenase (NAD(+)) 3 non-catalytic subunit gamma (P70404)) was 1.573, the “Expr Fold Change, MDH2” value (kidney mitochondria; β-RA treated vs untreated mice, malate dehydrogenase 2 (P08249)) was 1.397 and the “Expr Fold Change, OGDH” value (kidney mitochondria; β-RA treated vs untreated mice, oxoglutarate dehydrogenase (Q60597)) was 2.05. For the same molecule, the “Expr Fold Change, PDHA1” value (kidney mitochondria; β-RA treated vs untreated mice, pyruvate dehydrogenase E1 subunit alpha 1 (P35486)) was 1.61, the “Expr Fold Change, PDHB” value (kidney mitochondria; β-RA treated vs untreated mice, pyruvate dehydrogenase E1 subunit beta (Q9D051)) was 1.711 and the 3T3L1 preadipocyte proliferation (3T3L1 preadipocytes) was “induces an inhibition”. For the same molecule, the “Proliferative capacity of C2C12 myoblasts” value (C2C12 myoblasts) was “did not have a significant effect”, the “Abdominal and visceral fat” value [4] was “reduction of abdominal and visceral fat” and the Skeletal muscle mass [4] was “do not cause any changes”. For the same molecule, the “Body weight (increase induced by HFHS diet)” value ([4]; male and female) was “counteracted said increase in weight”, the “Plasma levels of gastric inhibitory peptide (GIP)” value [5] was “reduced” and the “Plasma levels of insulin” value [5] was “reduced”. The “Levels of CoQ9 in WAT” value [6] was “increased said levels, achieving the normalization thereof”, the “Levels of biosynthetic protein Coq5 in WAT” value [6] was “increase” and the “Levels of biosynthetic protein Coq7 in WAT” value [6] was “increase in the levels of Coq7”. For the same molecule, the “Area of the adipocytes” value (white adipocytes) was “normalizes”, the “Number of adipocytes per area” value (white adipocytes) was “normalizes” and the “Hypertrophy of WAT (white adipocytes)” value (white adipocytes; H&E staining) was “prevents hypertrophy of WAT”. For the same molecule, the Body weight [7] was “reduces the body weight”.
